Patent US12559492B2, “BRAF degraders” (C4 Therapeutics, Inc., priority 2020, dated 2026)

Molecular target: BRAF^V600E protein (Homo sapiens, UniProt P15056, V600E)
Assay: HiBiT cellular BRAF V600E degradation assay
Type: cell-based
Conditions: 24 h incubation; for DC50: A375.10 cells (HiBiT tag knocked in at N-terminal of BRAF V600E), concentration at which 50% of total cellular BRAF V600E is degraded; for Emax / HiBit 24 h Emax: A375.10 cells, Emax = amount of residual protein remaining in the cell after compound treatment; for Emax: read-out: HiBit 24 h Emax

Chain of BRAF^V600E protein (P15056 whole entry V600E): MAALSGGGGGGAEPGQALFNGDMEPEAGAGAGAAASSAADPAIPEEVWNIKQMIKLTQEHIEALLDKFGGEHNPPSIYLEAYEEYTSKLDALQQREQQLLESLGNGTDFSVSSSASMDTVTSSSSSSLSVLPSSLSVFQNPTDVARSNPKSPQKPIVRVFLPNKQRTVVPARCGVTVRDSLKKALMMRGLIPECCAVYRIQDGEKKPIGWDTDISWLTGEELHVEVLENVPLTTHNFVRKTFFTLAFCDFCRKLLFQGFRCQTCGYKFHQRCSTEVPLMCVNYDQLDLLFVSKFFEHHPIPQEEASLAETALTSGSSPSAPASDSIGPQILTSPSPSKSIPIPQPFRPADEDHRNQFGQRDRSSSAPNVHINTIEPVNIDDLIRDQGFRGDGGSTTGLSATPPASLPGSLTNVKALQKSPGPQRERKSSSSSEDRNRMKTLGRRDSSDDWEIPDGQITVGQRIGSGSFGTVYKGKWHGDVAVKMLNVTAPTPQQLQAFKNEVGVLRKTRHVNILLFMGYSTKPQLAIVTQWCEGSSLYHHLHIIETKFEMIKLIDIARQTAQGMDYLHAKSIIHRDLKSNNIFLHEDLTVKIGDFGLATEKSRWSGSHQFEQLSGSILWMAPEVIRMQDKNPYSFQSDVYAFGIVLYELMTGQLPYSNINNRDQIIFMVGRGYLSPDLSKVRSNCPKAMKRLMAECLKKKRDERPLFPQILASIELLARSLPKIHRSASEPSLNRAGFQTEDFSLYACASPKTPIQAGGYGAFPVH

Row | DC50 [nM] | Emax [%] | HiBit 24 h Emax [%] | Structure (SMILES)
1 | 54 | 21 | – | CCN(C)S(=O)(=O)Nc1ccc(F)c(C(=O)c2c[nH]c3ncc(-c4ccc(N5CCN(C(=O)CCN6CCC(c7ccc(OC8CCC(=O)NC8=O)cc7)CC6)CC5)nc4)cc23)c1F (stereo not drawn) [Example A35, 5-[6-[4-[3-[4-[4-(2,6-Dioxopiperidin-3-yl)oxyphenyl]piperidin-1-yl]propanoyl]piperazin-1-yl]pyridin-3-yl]-3-[3-[[ethyl(methyl)sulfamoyl]amino]-2,6-difluorobenzoyl]-1H-pyrrolo[2,3-b]pyridine]
2 | 50 | 11 | – | CCN(C)S(=O)(=O)Nc1ccc(F)c(C(=O)c2c[nH]c3ncc(-c4cnc(N5CCN(C(=O)CN6CCN(c7ccc(OC8CCC(=O)NC8=O)cn7)CC6)CC5)nc4)cc23)c1F (stereo not drawn) [Example A68, 5-[2-[4-[2-[4-[5-(2,6-Dioxopiperidin-3-yl)oxypyridin-2-yl]piperazin-1-yl]acetyl]piperazin-1-yl]pyrimidin-5-yl]-3-[3-[[ethyl(methyl)sulfamoyl]amino]-2,6-difluorobenzoyl]-1H-pyrrolo[2,3-b]pyridine]
3 | 26 | 8 | – | O=C1CCC(Oc2ccc(C3CCN(CC(=O)N4CC5(C4)CN(c4ccc(-c6cnc7[nH]cc(C(=O)c8c(F)ccc(NS(=O)(=O)N9CCCC9)c8F)c7c6)cc4)C5)CC3)cc2)C(=O)N1 (stereo not drawn) [Example A116, N-[3-[5-[4-[2-[2-[4-[4-(2,6-Dioxopiperidin-3-yl)oxyphenyl]piperidin-1-yl]acetyl]-2,6-diazaspiro[3.3]heptan-6-yl]phenyl]-1H-pyrrolo[2,3-b]pyridine-3-carbonyl]-2,4-difluorophenyl]pyrrolidine-1-sulfonamide]
4 | 19 | 18 | – | CCN(C)S(=O)(=O)Nc1ccc(F)c(C(=O)c2c[nH]c3ncc(-c4cnc(N5CCN(C(=O)CN6CCC(c7ccc(N(C)C8CCC(=O)NC8=O)cc7)CC6)CC5)nc4)cc23)c1F (stereo not drawn) [Example A70, 5-[2-[4-[2-[4-[4-[(2,6-Dioxopiperidin-3-yl)-methylamino]phenyl]piperidin-1-yl]acetyl]piperazin-1-yl]pyrimidin-5-yl]-3-[3-[[ethyl(methyl)sulfamoyl]amino]-2,6-difluorobenzoyl]-1H-pyrrolo[2,3-b]pyridine]
5 | 28.3 | 7.17 | – | CCN(C)S(=O)(=O)Nc1ccc(F)c(C(=O)c2c[nH]c3ncc(-c4cnc(N5CC6(CC(C7CCN(c8ccc(NC9CCC(=O)NC9=O)cc8F)CC7)C6)C5)nc4)cc23)c1F (stereo not drawn) [Example 199, 5-[2-[6-[1-[4-[(2,6-dioxo-3-piperidyl)amino]-2-fluoro-phenyl]-4-piperidyl]-2-azaspiro[3.3]heptan-2-yl]pyrimidin-5-yl]-3-[3-[[ethyl(methyl)sulfamoyl]amino]-2,6-difluoro-benzoyl]-1H-pyrrolo[2,3-b]pyridine]
6 | 1.23 | 6.98 | – | CCN(C)S(=O)(=O)Nc1cc(F)cc(C(=O)c2c[nH]c3ncc(-c4ccc(N5CCN(C(=O)CC6(O)CCN(c7ccc(NC8CCC(=O)NC8=O)cc7F)CC6)CC5)nc4)cc23)c1F (stereo not drawn) [Example 207, 5-[6-[4-[2-[1-[4-[(2,6-dioxo-3-piperidyl)amino]-2-fluoro-phenyl]-4-hydroxy-4-piperidyl]acetyl]piperazin-1-yl]-3-pyridyl]-3-[3-[[ethyl(methyl)sulfamoyl]amino]-2,5-difluoro-benzoyl]-1H-pyrrolo[2,3-b]pyridine]
7 | 19.4 | – | 18.02 | CCN(C)S(=O)(=O)Nc1ccc(F)c(C(=O)c2c[nH]c3ncc(-c4cnc(N5CCN(C(=O)CN6CCC(c7ccc(N(C)C8CCC(=O)NC8=O)cc7)CC6)CC5)nc4)cc23)c1F (stereo not drawn) [Example 22, 5-[2-[4-[2-[4-[4-[(2,6-dioxo-3-piperidyl)-methyl-amino]phenyl]-1-piperidyl]acetyl]piperazin-1-yl]pyrimidin-5-yl]-3-[3-[[ethyl(methyl)sulfamoyl]amino]-2,6-difluoro-benzoyl]-1H-pyrrolo[2,3-b]pyridine]
8 | 12 | 8 | – | CCN(C)S(=O)(=O)Nc1ccc(F)c(C(=O)c2c[nH]c3ncc(-c4ccc(N5CCN(C(=O)CN6CCC(c7ccc(O[C@H]8CCC(=O)NC8=O)cc7)CC6)CC5)nc4)cc23)c1F [Example A121, 5-[6-[4-[2-[4-[4-[(3S)-2,6-Dioxopiperidin-3-yl]oxyphenyl]piperidin-1-yl]acetyl]piperazin-1-yl]pyridin-3-yl]-3-[3-[[ethyl(methyl)sulfamoyl]amino]-2,6-difluorobenzoyl]-1H-pyrrolo[2,3-b]pyridine]
9 | 4.61 | – | 6.57 | CCN(C)S(=O)(=O)Nc1ccc(F)c(C(=O)c2c[nH]c3ncc(-c4cnc(N5CCN(C(=O)CN6CC[C@H](c7ccc(NC8CCC(=O)NC8=O)cc7)C(F)(F)C6)CC5)nc4)cc23)c1F (stereo partly drawn) [Example 55, 5-[2-[4-[2-[(4R)-4-[4-[(2,6-dioxo-3-piperidyl)amino]phenyl]-3,3-difluoro-1-piperidyl]acetyl]piperazin-1-yl]pyrimidin-5-yl]-3-[3-[[ethyl(methyl)sulfamoyl]amino]-2,6-difluoro-benzoyl]-1H-pyrrolo[2,3-b]pyridine]
10 | 20.9 | 9.56 | – | CC(C)S(=O)(=O)Nc1ccc(F)c(C(=O)c2c[nH]c3ncc(-c4ccc(N5CCN(C(=O)CN6CCC(c7ccc(OC8CCC(=O)NC8=O)cc7)CC6)CC5)nc4)cc23)c1F (stereo not drawn) [Example 13, N-[3-[5-[6-[4-[2-[4-[4-[(2,6-dioxo-3-piperidyl)oxy]phenyl]-1-piperidyl]acetyl]piperazin-1-yl]-3-pyridyl]-1H-pyrrolo[2,3-b]pyridine-3-carbonyl]-2,4-difluoro-phenyl]propane-2-sulfonamide]
11 | 4.44 | 13.4 | – | CCN(C)S(=O)(=O)Nc1ccc(F)c(C(=O)c2c[nH]c3ncc(-c4cnc(N5CCN(C(=O)CC6(O)CCN(c7ccc(NC8CCC(=O)NC8=O)cc7)CC6)CC5)nc4)cc23)c1F (stereo not drawn) [Example 38, 5-[2-[4-[2-[1-[4-[(2,6-dioxo-3-piperidyl)amino]phenyl]-4-hydroxy-4-piperidyl]acetyl]piperazin-1-yl]pyrimidin-5-yl]-3-[3-[[ethyl(methyl)sulfamoyl]amino]-2,6-difluoro-benzoyl]-1H-pyrrolo[2,3-b]pyridine]
12 | 205 | 11.6 | – | [2H][C@]1(c2ccc(N3CCC(O)(CC(=O)N4CCN(c5ncc(-c6cnc7[nH]cc(C(=O)c8c(F)ccc(NS(=O)(=O)N(C)CC)c8F)c7c6)cn5)CC4)CC3)c(F)c2)CCC(=O)NC1=O (single isomer, unassigned) [Example 158d]
13 | 13 | 13 | – | CCN(C)S(=O)(=O)Nc1ccc(F)c(C(=O)c2c[nH]c3ncc(-c4ccc(N5CCC(NCC(=O)N6CCC(c7ccc(NC8CCC(=O)NC8=O)cc7)CC6)CC5)nc4)cc23)c1F (stereo not drawn) [Example A110, 5-[6-[4-[[2-[4-[4-[(2,6-Dioxopiperidin-3-yl)amino]phenyl]piperidin-1-yl]-2-oxoethyl]amino]piperidin-1-yl]pyridin-3-yl]-3-[3-[[ethyl(methyl)sulfamoyl]amino]-2,6-difluorobenzoyl]-1H-pyrrolo[2,3-b]pyridine;formic acid]
14 | 24.5 | 9.48 | – | CCN(C)S(=O)(=O)Nc1ccc(F)c(C(=O)c2c[nH]c3ncc(-c4cnc(N5CCN(C(=O)CN6CCC(c7c(F)cc(OC8CCC(=O)NC8=O)cc7F)CC6)CC5)nc4)cc23)c1F (stereo not drawn) [Example 41, 5-[2-[4-[2-[4-[4-[(2,6-dioxo-3-piperidyl)oxy]-2,6-difluoro-phenyl]-1-piperidyl]acetyl]piperazin-1-yl]pyrimidin-5-yl]-3-[3-[[ethyl(methyl)sulfamoyl]amino]-2,6-difluoro-benzoyl]-1H-pyrrolo[2,3-b]pyridine]
15 | 3 | 8 | – | CCN(C)S(=O)(=O)Nc1ccc(F)c(C(=O)c2c[nH]c3ncc(-c4cnc(N5CCN(C(=O)CN6CCC(c7ccc(NC8CCC(=O)NC8=O)cc7)CC6)CC5)nc4)cc23)c1F (stereo not drawn) [Example A10, 5-[2-[4-[2-[4-[4-[(2,6-Dioxopiperidin-3-yl)amino]phenyl]piperidin-1-yl]acetyl]piperazin-1-yl]pyrimidin-5-yl]-3-[3-[[ethyl(methyl)sulfamoyl]amino]-2,6-difluorobenzoyl]-1H-pyrrolo[2,3-b]pyridine]
16 | 30 | 21.2 | – | CCN(C)S(=O)(=O)Nc1ccc(F)c(C(=O)c2c[nH]c3ncc(-c4cnc(N5CCN(C(=O)CC6CCN(c7ccc(NC8CCC(=O)NC8=O)cc7)CC6)CC5)nc4)cc23)c1F (stereo not drawn) [Example 31, 5-[2-[4-[2-[1-[4-[(2,6-dioxo-3-piperidyl)amino]phenyl]-4-piperidyl]acetyl]piperazin-1-yl]pyrimidin-5-yl]-3-[3-[[ethyl(methyl)sulfamoyl]amino]-2,6-difluoro-benzoyl]-1H-pyrrolo[2,3-b]pyridine]
17 | 6.46 | 10.8 | – | CCN(C)S(=O)(=O)Nc1cccc(C(=O)c2c[nH]c3ncc(-c4ccc(N5CCN(C(=O)CC6(O)CCN(c7ccc(NC8CCC(=O)NC8=O)cc7F)CC6)CC5)nc4)cc23)c1F (stereo not drawn) [Example 112, 5-[6-[4-[2-[1-[4-[(2,6-dioxo-3-piperidyl)amino]-2-fluoro-phenyl]-4-hydroxy-4-piperidyl]acetyl]piperazin-1-yl]-3-pyridyl]-3-[3-[[ethyl(methyl)sulfamoyl]amino]-2-fluoro-benzoyl]-1H-pyrrolo[2,3-b]pyridine]
18 | 0.76 | 5.52 | – | CCN(C)S(=O)(=O)Nc1ccc(F)c(C(=O)c2c[nH]c3ncc(-c4cnc(N5CCN(C(=O)CC6(O)CCN(c7ccc(N[C@@H]8CCC(=O)NC8=O)cc7Cl)CC6)CC5)nc4)cc23)c1F [Example 209, 5-[2-[4-[2-[1-[2-chloro-4-[[(3R)-2,6-dioxo-3-piperidyl]amino]phenyl]-4-hydroxy-4-piperidyl]acetyl]piperazin-1-yl]pyrimidin-5-yl]-3-[3-[[ethyl(methyl)sulfamoyl]amino]-2,6-difluoro-benzoyl]-1H-pyrrolo[2,3-b]pyridine]
